Measured values: patent US6737409B2, “Dolastatin 10 derivatives” (Hoffmann-La Roche Inc., priority 2001, dated 2004)

tested on: HCT 116; test: Antiproliferative activity assay (WST-8); assay type: cell-based; conditions: Homo sapiens, HCT-116, 96 h, read-out: HCT 116 IC50 (nM)
Method: Antiproliferative activity assay was carried out as follows. A single suspension of tumor cells was inoculated to the serially diluted 96-well microtestplate. Then the testplate was incubated in the 5% CO2 ambience at 37° C. for 4 days (2-3×10^3 cells/well). The degree of cell growth in a monolayer was measured by using WST-8 (Dojindo, Japan). IC50 values of drugs against tumor cells were calculated as the concentration of drug yielding 50% OD of the control growth.

Compound | IC50 [nM]
CCNC(=O)Oc1cccc(CCNC(=O)C(C)C(SC)C2CCCN2C(=O)CC(OC)C(C(C)CC)N(C)C(=O)C(NC(=O)C(C(C)C)N(C)C)C(C)C)c1 (stereo not drawn) [Ethyl-carbamic acid 3-(2-{3-[1-(4-{[2-(2-dimethylamino-3-methyl-butyrylamino)-3-methyl-butyryl]-methyl-amino}-3-methoxy-5-methyl-heptanoyl)-pyrrolidin-2-yl]-2-methyl-3-methylsulfanyl-propionylamino}-ethyl)-phenyl ester] | 0.57

same assay, conditions: Homo sapiens, HCT-116, 96 h; incubated 4 days, WST-8; concentration of drug yielding 50% OD of the control growth; read-out: HCT 116 IC50

Compound | IC50 [nM]
CCC(C)C(C(CC(=O)N1CCCC1C(CC(=O)NCCc1ccccc1)SCCOC(C)=O)OC)N(C)C(=O)C(NC(=O)C(C(C)C)N(C)C)C(C)C (stereo not drawn) [Acetic acid 2-{1-[1-(4-{[2-(2-dimethylamino-3-methyl-butyrylamino)-3-methyl-butyryl]-methyl-amino}-3-methoxy-5-methyl-heptanoyl)-pyrrolidin-2-yl]-2-phenethylcarbamoyl-ethylsulfanyl}-ethyl ester] | 0.19
CCNC(=O)OCCSC(CC(=O)NCCc1ccccc1)C1CCCN1C(=O)CC(OC)C(C(C)CC)N(C)C(=O)C(NC(=O)C(C(C)C)N(C)C)C(C)C (stereo not drawn) [Ethyl-carbamic acid 2-{1-[1-(4-{[2-(2-dimethylamino-3-methyl-butyrylamino)-3-methyl-butyryl]-methyl-amino}-3-methoxy-5-methyl-heptanoyl)-pyrrolidin-2-yl]-2-phenethylcarbamoyl-ethylsulfanyl}-ethyl ester] | 0.97
CCC(C)C(C(CC(=O)N1CCCC1C(CC(=O)NCCc1cccc(O)c1)SCC(=O)N(C)C)OC)N(C)C(=O)C(NC(=O)C(C(C)C)N(C)C)C(C)C (stereo not drawn) [N-(1-{[1-sec-Butyl-4-(2-{1-dimethylcarbamoylmethylsulfanyl-2-[2-(3-hydroxy-phenyl)-ethylcarbamoyl]-ethyl}-pyrrolidin-1-yl)-2-methoxy-4-oxo-butyl]-methyl-carbamoyl}-2-methyl-propyl)-2-dimethylamino-3-methyl-butyramide] | 1.8
CCC(C)C(C(CC(=O)N1CCCC1C(CC(=O)NCCc1ccccc1O)SC)OC)N(C)C(=O)C(NC(=O)C(C(C)C)N(C)C)C(C)C (stereo not drawn) [N-(1-{[1-sec-Butyl-4-(2-{2-[2-(2-hydroxy-phenyl)-ethylcarbamoyl]-1-methylsulfanyl-ethyl}-pyrrolidin-1-yl)-2-methoxy-4-oxo-butyl]-methyl-carbamoyl}-2-methyl-propyl)-2-dimethylamino-3-methyl-butyramide] | 0.64
CCC(C)C(C(CC(=O)N1CCCC1C(CC(=O)NCCc1ccc(OC)c(OC)c1)SC)OC)N(C)C(=O)C(NC(=O)C(C(C)C)N(C)C)C(C)C (stereo not drawn) [N-(1-{[1-sec-Butyl-4-(2-{2-[2-(3,4-dimethoxy-phenyl)-ethylcarbamoyl]-1-methylsulfanyl-ethyl}-pyrrolidin-1-yl)-2-methoxy-4-oxo-butyl]-methyl-carbamoyl}-2-methyl-propyl)-2-dimethylamino-3-methyl-butyramide] | 0.91
CCC(C)C(C(CC(=O)N1CCCC1C(CC(=O)NCCc1cccc(O)c1)SC)OC)N(C)C(=O)C(NC(=O)C(C(C)C)N(C)C)C(C)C (stereo not drawn) [N-(1-{[1-sec-Butyl-4-(2-{2-[2-(3-hydroxy-phenyl)-ethylcarbamoyl]-1-methylsulfanyl-ethyl}-pyrrolidin-1-yl)-2-methoxy-4-oxo-butyl]-methyl-carbamoyl}-2-methyl-propyl)-2-dimethylamino-3-methyl-butyramide] | 0.26
CCC(C)C(C(CC(=O)N1CCCC1C(CC(=O)NCCc1ccc(O)cc1)SC)OC)N(C)C(=O)C(NC(=O)C(C(C)C)N(C)C)C(C)C (stereo not drawn) [N-(1-{[1-sec-Butyl-4-(2-{2-[2-(4-hydroxy-phenyl)-ethylcarbamoyl]-1-methylsulfanyl-ethyl}-pyrrolidin-1-yl)-2-methoxy-4-oxo-butyl]-methyl-carbamoyl}-2-methyl-propyl)-2-dimethylamino-3-methyl-butyramide] | 0.6
CCC(C)C(C(CC(=O)N1CCCC1C(SC)C(C)C(=O)NCCc1ccccc1)OC)N(C)C(=O)C(NC(=O)C(C(C)C)N(C)C)C(C)C (stereo not drawn) [N-[1-({1-sec-Butyl-2-methoxy-4-[2-(1-methylsulfanyl-2-phenethylcarbamoyl-propyl)-pyrrolidin-1-yl]-4-oxo-butyl}-methyl-carbamoyl)-2-methyl-propyl]-2-dimethylamino-3-methyl-butyramide] | 0.04
CCCCCSC(CC(=O)NCCc1ccccc1)C1CCCN1C(=O)CC(OC)C(C(C)CC)N(C)C(=O)C(NC(=O)C(C(C)C)N(C)C)C(C)C (stereo not drawn) [N-[1-({1-sec-Butyl-2-methoxy-4-oxo-4-[2-(1-pentylsulfanyl-2-phenethylcarbamoyl-ethyl)-pyrrolidin-1-yl]-butyl}-methyl-carbamoyl)-2-methyl-propyl]-2-dimethylamino-3-methyl-butyramide] | 0.75
CCC(C)C(C(CC(=O)N1CCCC1C(CC(=O)NCCc1ccccc1)Sc1ccccc1)OC)N(C)C(=O)C(NC(=O)C(C(C)C)N(C)C)C(C)C (stereo not drawn) [N-[1-({1-sec-Butyl-2-methoxy-4-oxo-4-[2-(2-phenethylcarbamoyl-1-phenylsulfanyl-ethyl)-pyrrolidin-1-yl]-butyl}-methyl-carbamoyl)-2-methyl-propyl]-2-dimethylamino-3-methyl-butyramide] | 0.33
CCC(C)C(C(CC(=O)N1CCCC1[C@@H](CC(=O)NCCc1ccccc1)SC(C)(C)C)OC)N(C)C(=O)C(NC(=O)C(C(C)C)N(C)C)C(C)C (stereo partly drawn) [N-[1-({1-sec-Butyl-4-[2-(1-(R)-tert-butylsulfanyl-2-phenethylcarbamoyl-ethyl)-pyrrolidin-1-yl]-2-methoxy-4-oxo-butyl}-methyl-carbamoyl)-2-methyl-propyl]-2-dimethylamino-3-methyl-butyramide] | 0.04
CCSC(CC(=O)NCCc1ccccc1)C1CCCN1C(=O)CC(OC)C(C(C)CC)N(C)C(=O)C(NC(=O)C(C(C)C)N(C)C)C(C)C (stereo not drawn) [N-[1-({1-sec-Butyl-4-[2-(1-ethylsulfanyl-2-phenethylcarbamoyl-ethyl)-pyrrolidin-1-yl]-2-methoxy-4-oxo-butyl}-methyl-carbamoyl)-2-methyl-propyl]-2-dimethylamino-3-methyl-butyramide] | 0.78
CCSC(CC(=O)NCCc1ccccc1)C1CCCN1C(=O)CC(OC)C(C(C)CC)N(C)C(=O)C(NC(=O)C(NC)C(C)C)C(C)C (stereo not drawn) [N-[1-({1-sec-Butyl-4-[2-(1-ethylsulfanyl-2-phenethylcarbamoyl-ethyl)-pyrrolidin-1-yl]-2-methoxy-4-oxo-butyl}-methyl-carbamoyl)-2-methyl-propyl]-3-methyl-2-methylamino-butyramide] | 0.5
CCC(C)C(C(CC(=O)N1CCCC1C(CC(=O)NCCc1ccccc1)S(C)(=O)=O)OC)N(C)C(=O)C(NC(=O)C(C(C)C)N(C)C)C(C)C (stereo not drawn) [N-[1-({1-sec-Butyl-4-[2-(1-methanesulfonyl-2-phenethylcarbamoyl-ethyl)-pyrrolidin-1-yl]-2-methoxy-4-oxo-butyl}-methyl-carbamoyl)-2-methyl-propyl]-2-dimethylamino-3-methyl-butyramide] | 0.44
CCC(C)C(C(CC(=O)N1CCCC1C(CC(=O)NCCc1ccccc1)SC(C)(C)C)OC)N(C)C(=O)C(NC(=O)C(C(C)C)N(C)C)C(C)C (stereo not drawn) [N-[1-({1-sec-Butyl-4-[2-(1-tert-butylsulfanyl-2-phenethylcarbamoyl-ethyl)-pyrrolidin-1-yl]-2-methoxy-4-oxo-butyl}-methyl-carbamoyl)-2-methyl-propyl]-2-dimethylamino-3-methyl-butyramide] | 0.17
C=CCSC(CC(=O)NCCc1ccccc1)C1CCCN1C(=O)CC(OC)C(C(C)CC)N(C)C(=O)C(NC(=O)C(C(C)C)N(C)C)C(C)C (stereo not drawn) [N-[1-({4-[2-(1-Allylsulfanyl-2-phenethylcarbamoyl-ethyl)-pyrrolidin-1-yl]-1-sec-butyl-2-methoxy-4-oxo-butyl}-methyl-carbamoyl)-2-methyl-propyl]-2-dimethylamino-3-methyl-butyramide] | 0.55
CCC(C)C(C(CC(=O)N1CCCC1C(CC(=O)NCCc1ccccc1)SCc1ccccc1)OC)N(C)C(=O)C(NC(=O)C(C(C)C)N(C)C)C(C)C (stereo not drawn) [N-[1-({4-[2-(1-Benzylsulfanyl-2-phenethylcarbamoyl-ethyl)-pyrrolidin-1-yl]-1-sec-butyl-2-methoxy-4-oxo-butyl}-methyl-carbamoyl)-2-methyl-propyl]-2-dimethylamino-3-methyl-butyramide] | 0.52
CCC(C)C(C(CC(=O)N1CCCC1C(CC(=O)NCCc1ccccn1)SC)OC)N(C)C(=O)C(NC(=O)C(C(C)C)N(C)C)C(C)C (stereo not drawn) [N-{1-[(1-sec-Butyl-2-methoxy-4-{2-[1-methylsulfanyl-2-(2-pyridin-2-yl-ethylcarbamoyl)-ethyl]-pyrrolidin-1-yl}-4-oxo-butyl)-methyl-carbamoyl]-2-methyl-propyl}-2-dimethylamino-3-methyl-butyramide] | 0.9

same assay, conditions: incubated 4 days, WST-8; concentration of drug yielding 50% OD of the control growth; read-out: HCT 116 IC50

Compound | IC50 [nM]
CCC(C)C(C(CC(=O)N1CCCC1C(SC)C(C)C(=O)NCCc1ccccc1)OC)N(C)C(=O)C(NC(=O)C(NC)C(C)C)C(C)C (stereo not drawn) [N-[-({1-sec-Butyl-2-methoxy-4-[2-(1-methylsulfanyl-2-phenethylcarbamoyl-propyl)-pyrrolidin-1-yl]-4-oxo-butyl}-methyl-carbamoyl)-2-methyl-propyl]-2-methylamino-3 methyl-butyramide] | 1
CCC(C)C(C(CC(=O)N1CCCC1C(CC(=O)NCCc1ccccc1)Sc1ccccc1)OC)N(C)C(=O)C(NC(=O)C(NC)C(C)C)C(C)C (stereo not drawn) [N-[-({1-sec-Butyl-2-methoxy-4-oxo-4-[2-(2-phenethylcarbamoyl-1-phenylsulfanyl-ethyl)-pyrrolidin-1-yl]-butyl}-methyl-carbamoyl)-2-methyl-propyl]-3-methyl-2-methylamino-butyramide] | 0.87
